Assay results taken from patent publication US20070225278A1, “Methods for treating cognitive and other disorders” (priority 2006, published 2007).

What was measured:
[1] = system: male Sprague-Dawley rats; assay type: in vivo, rat; conditions: minimal dose at which sexual dysfunction occurs, male rats
Excerpt: In summary, male rats were allowed access to sexually receptive females during a single overnight mating session and then administered antidepressants with varying degrees of clinically reported sexual deficits. […] Animals
Intact male Sprague-Dawley rats (Charles River Laboratories) arrived at 7 weeks of age and were allowed to habituate for one week prior to sexual experience or behavioral testing. Rats were group housed in same-sex colony rooms with food and water provided ad libitum. All animals were maintained under a 12:12 light-dark cycle (lights on at 6:00 am) with behavioral experiments performed during the light hours beginning at noon.
Ovariectomized female Long-Evans rats (Charles River Laboratories) were individually housed and brought into behavioral estrus weekly by subcutaneous injection of 25 ug 17-B estradiol benzoate in 0.1 ml corn oil 48 hours prior to testing, followed by subcutaneous administration of 2.5 mg progesterone in 0.1 ml corn oil 4 to 6 hours before testing.
For subjects assigned into the sexually experienced group, the following procedures were performed. Individual male rats were placed into the home cage of a a sexually receptive female for overnight mating sessions. The cage was a Plexiglas cage measuring 10×12 inches, with food and water ad libitum. Mating pairs were randomly assigned. […] Following overnight mating sessions, males and females were separated from each other and placed back into same-sex colony rooms where they were group-housed until the time of behavioral testing.
To determine the effects of female stimuli on non-contact penile erections, sexually receptive females were brought into the testing room 30 minutes prior to the start of behavioral testing in order to provide female visual, olfactory, and auditory stimuli for males. The testing arena for observing non-contact penile erections in male rats consisted of an empty rat size Plexiglas cage (11×10 inches) containing no bedding, with an aerated plastic lid and a total ceiling height of 12 inches. […] A penile erection consisted of observation of the male rat in a hunched position grasping the penis with the forepaws and followed by a series of pelvic thrusts. The number of penile erections were quantified over a 30 minute observation session.
Following sexual experience (as described above), male subjects (n=8 per group) were administered either 10 mg/kg/day fluoxetine or saline vehicle for 14 days. On the 14th day, fluoxetine treatment was co-administered with either saline or apomorphine (0.1-0.3 mg/kg, sc) or yohimbine (0.1-0.3 mg/kg, sc) or sildenafil (0.1-0.3 mg/kg, sc) in separate experiments. Non-contact penile erections were evaluated in 30 minute test sessions in the presence of sexually receptive female rats.
Fluoxetine HCl (Tocris), desipramine (Sigma, St. Louis, Mo.) and bupropion HCl (Toronto Research Chemicals, Canada) were dissolved in 0.9% sterile saline vehicle and injected intraperitoneally (i.p.) once daily. On the day of behavioral testing, antidepressants were administered intraperitoneally (i.p.) as one hour pretreatments. For reversal experiments, apomorphine (Sigma, St. Louis, Mo.), yohimbine (Sigma, St. Louis, Mo.) or sildenafil (Toronto Research Chemicals, Canada) were used. Apomorphine was dissolved in 0.9% sterile saline vehicle and injected subcutaneously (s.c.). Yohimbine was dissolved in dH2O facilitated with 1N HCl, followed by addition of 1N NaOH for titration (pH=7) and administered intraperitoneally (i.p.). Sildenafil was dissolved in 0.9% sterile saline vehicle and administered intraperitoneally (i.p.). With the exception of fluoxetine which was administered in a dose volume of 2 ml/kg, all other test compounds were administered in a dose volume of 1 ml/kg. On the day of behavioral testing, both fluoxetine and the reversal agent (apomorphine, yohimbine, or sildenafil) were co-administered as 0 minute pretreatments. […]

[2] = Antidepressant-like effects (MED), Table 2; assay type: in vivo; conditions: minimal effective dose
Excerpt: Table 2, below, summarizes the dose at which antidepressant-like effects are observed, the dose at which sexual dysfunction occurs, and the therapeutic window.

[3] = system: rats; test: 5-choice serial reaction time test (5CSRT), variable ITI; assay type: in vivo, rat; conditions: 1 mg/kg ip, 10 and 7 sec ITI, p<0.05 vs vehicle
Excerpt: The 5-choice serial reaction time task is a behavioral assay that is used to measure attention and impulsivity in rats. Rats are trained to respond correctly to aperture illuminations reinforced to food rewards until they reach >70% correct responses during a 30-minute baseline session. Once animals reach baseline criteria, a variable stimulus duration (SD) and variable inter-trial interval (ITI) test can be used to manipulate normal baseline performance. […] When the ITI is increased from that used during baseline training impulsivity, as measured by premature responses, is increased. Compounds and manipulations that improve attention will improve performance and those that decrease impulsivity will decrease premature responses.
5CSRT: The test apparatus consisted of ten 25×25 cm aluminum chambers (Med Associates Inc., St. Albans, Vt.). The rear wall of each chamber was concavely curved, containing five accessible apertures, each 2.5 cm square, and 4 cm deep positioned 2 cm above floor level. […]
5CSRT Training: Prior to drug treatments, rats were trained to discriminate a brief visual stimulus light presented randomly in one of the five spatial locations. […] A single nose-poke in this opening during the period of illumination (signal period), or during the 5 second afterwards (limited hold) was reinforced by the delivery of a food pellet and a correct response was recorded. […]

In the case of `c1cc2c3c(c1)[C@H]1CCC[C@H]1N3CCNC2` [Compound 1], the “Sexual dysfunction (MED mg/kg)” value [1] is reported as “≧10 mg/kg”, the “Antidepressant-like effects (MED mg/kg)” value [2] is reported as 0.3 mg/kg and the premature responding [3] is reported as “statistically significant decrease”.
